According to ChEMBL document CHEMBL1153362, “Discovery of 6-({4-[2-(4-tert-butylphenyl)-1H-benzimidazol-4-yl]piperazin-1-yl}methyl)quinoxaline (WAY-207024): an orally active antagonist of the gonadotropin releasing hormone receptor (GnRH-R)” (J Med Chem, 2009):
pIC50, pKi: −log10 of the molar value. Converted amounts (≈) assume the structure as drawn. The source made the active and inactive calls. The rule behind the calls is not given here.

Assays:
[1] = target: T1, Gonadotropin-releasing hormone receptor (Homo sapiens, UniProt P30968); assay: Antagonist activity at human GnRH receptor assessed as inhibition of [D-Trp6]-GnRH-stimulated [3H]IP […]; assay type: functional
T1 sequence (P30968 whole entry): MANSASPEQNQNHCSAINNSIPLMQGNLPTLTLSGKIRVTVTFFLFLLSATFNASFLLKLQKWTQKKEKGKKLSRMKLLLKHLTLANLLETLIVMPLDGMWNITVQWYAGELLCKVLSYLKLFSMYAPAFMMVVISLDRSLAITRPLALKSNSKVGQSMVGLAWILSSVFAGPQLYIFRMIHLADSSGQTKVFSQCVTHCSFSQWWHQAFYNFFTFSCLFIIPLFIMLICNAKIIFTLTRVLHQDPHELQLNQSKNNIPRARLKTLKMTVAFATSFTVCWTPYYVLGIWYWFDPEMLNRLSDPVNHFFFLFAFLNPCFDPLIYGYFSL

[2] = Aqueous solubility at pH 7.4; assay type: physicochemical
[3] = Permeability across artificial membrane; assay type: ADME; details: PAMPA; read-out: permeability
[4] = target: T1, Gonadotropin-releasing hormone receptor; assay: Displacement of [D-Trp6]-GnRH from human recombinant GnRH receptor
[5] = Metabolic stability in rat liver microsomes assessed as half life; assay type: ADME, Microsome
[6] = target: T2, Gonadotropin-releasing hormone receptor (Rattus norvegicus, UniProt P30969); assay: Displacement of [D-Trp6]-GnRH from rat recombinant GnRH receptor
T2 sequence (P30969 whole entry): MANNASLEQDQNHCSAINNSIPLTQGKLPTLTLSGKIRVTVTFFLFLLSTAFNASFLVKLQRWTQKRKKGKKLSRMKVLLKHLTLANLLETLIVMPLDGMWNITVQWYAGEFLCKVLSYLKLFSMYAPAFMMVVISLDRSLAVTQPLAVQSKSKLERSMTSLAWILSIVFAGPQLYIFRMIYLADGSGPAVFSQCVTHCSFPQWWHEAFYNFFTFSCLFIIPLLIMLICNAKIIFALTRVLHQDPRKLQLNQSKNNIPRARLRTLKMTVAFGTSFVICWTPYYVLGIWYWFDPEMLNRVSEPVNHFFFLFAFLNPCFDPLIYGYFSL

[7] = target: T2, Gonadotropin-releasing hormone receptor; assay: Antagonist activity at rat recombinant GnRH receptor assessed as inhibition of [D-Trp6]-GnRH-stimulated LH release from rat pituitary cells; assay type: functional, cell-based, Pituitary gland cell
[8] = target: Histamine H2 receptor (Homo sapiens, UniProt P25021); assay: Inhibition of human histamine H2 receptor
[9] = AUC (0 to infinity) in castrated rat at 1 mg/kg, iv; assay type: ADME, organism-based; set-up: time infinity, dose 1 mg/kg, route intravenous; details: male, plasma
[10] = Half life in castrated rat at 1 mg/kg, iv; assay type: ADME, organism-based; set-up: dose 1 mg/kg, route intravenous; details: male, in vivo
[11] = system: Rattus norvegicus; assay: Reduction of serum LH level in castrated rat at 30 mg/kg, po after 6 hr; assay type: functional, organism-based; set-up: dose 30 mg/kg
[12] = target: Voltage-gated inwardly rectifying potassium channel KCNH2 (Homo sapiens, UniProt Q12809); assay: Inhibition of human ERG potassium channel at 2 uM
[13] = Tmax in castrated rat at 20 mg/kg, po; assay type: ADME, organism-based; set-up: dose 20 mg/kg, route oral; details: male, in vivo
[14] = Oral bioavailability in castrated rat at 20 mg/kg; assay type: ADME, organism-based; details: male, in vivo
[15] = Half life in castrated rat at 20 mg/kg, po; assay type: ADME, organism-based; set-up: dose 20 mg/kg, route oral; details: male, in vivo
[16] = system: Rattus norvegicus; assay: Reduction of serum LH level in castrated rat at 30 mg/kg, po after 1 hr; assay type: functional, organism-based; set-up: dose 30 mg/kg
[17] = AUC (0 to infinity) in castrated rat at 20 mg/kg, po; assay type: ADME, organism-based; set-up: time infinity, dose 20 mg/kg, route oral; details: male, plasma
[18] = Cmax in castrated rat at 20 mg/kg, po; assay type: ADME, organism-based; set-up: dose 20 mg/kg, route oral; details: male, in vivo
[19] = target: T3, Substance-K receptor (Homo sapiens, UniProt P21452); assay: Inhibition of human neurokinin NK2 receptor
T3 sequence (P21452 whole entry): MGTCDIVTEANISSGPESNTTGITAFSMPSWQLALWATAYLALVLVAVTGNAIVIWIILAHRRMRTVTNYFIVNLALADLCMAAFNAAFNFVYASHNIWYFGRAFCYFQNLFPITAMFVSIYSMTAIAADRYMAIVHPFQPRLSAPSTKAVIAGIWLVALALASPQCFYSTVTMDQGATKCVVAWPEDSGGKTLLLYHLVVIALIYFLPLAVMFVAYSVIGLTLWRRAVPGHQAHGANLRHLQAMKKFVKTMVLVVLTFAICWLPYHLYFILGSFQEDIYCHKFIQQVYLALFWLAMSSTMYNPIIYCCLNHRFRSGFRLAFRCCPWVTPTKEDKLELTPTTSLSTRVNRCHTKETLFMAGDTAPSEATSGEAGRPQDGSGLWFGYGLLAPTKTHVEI

[20] = Volume of distribution at steady state in castrated rat at 1 mg/kg, iv; assay type: ADME, organism-based; set-up: dose 1 mg/kg, route intravenous; details: male, in vivo, read-out: Vdss
[21] = Clearance in castrated rat plasma at 1 mg/kg, iv; assay type: ADME, organism-based; set-up: dose 1 mg/kg, route intravenous; details: male
[22] = target: Opioid receptors; mu/kappa/delta (Homo sapiens, UniProt P41145+P41143+P35372); assay: Inhibition of human non-selective opioid receptor

Chain of Voltage-gated inwardly rectifying potassium channel KCNH2 (Q12809 whole entry): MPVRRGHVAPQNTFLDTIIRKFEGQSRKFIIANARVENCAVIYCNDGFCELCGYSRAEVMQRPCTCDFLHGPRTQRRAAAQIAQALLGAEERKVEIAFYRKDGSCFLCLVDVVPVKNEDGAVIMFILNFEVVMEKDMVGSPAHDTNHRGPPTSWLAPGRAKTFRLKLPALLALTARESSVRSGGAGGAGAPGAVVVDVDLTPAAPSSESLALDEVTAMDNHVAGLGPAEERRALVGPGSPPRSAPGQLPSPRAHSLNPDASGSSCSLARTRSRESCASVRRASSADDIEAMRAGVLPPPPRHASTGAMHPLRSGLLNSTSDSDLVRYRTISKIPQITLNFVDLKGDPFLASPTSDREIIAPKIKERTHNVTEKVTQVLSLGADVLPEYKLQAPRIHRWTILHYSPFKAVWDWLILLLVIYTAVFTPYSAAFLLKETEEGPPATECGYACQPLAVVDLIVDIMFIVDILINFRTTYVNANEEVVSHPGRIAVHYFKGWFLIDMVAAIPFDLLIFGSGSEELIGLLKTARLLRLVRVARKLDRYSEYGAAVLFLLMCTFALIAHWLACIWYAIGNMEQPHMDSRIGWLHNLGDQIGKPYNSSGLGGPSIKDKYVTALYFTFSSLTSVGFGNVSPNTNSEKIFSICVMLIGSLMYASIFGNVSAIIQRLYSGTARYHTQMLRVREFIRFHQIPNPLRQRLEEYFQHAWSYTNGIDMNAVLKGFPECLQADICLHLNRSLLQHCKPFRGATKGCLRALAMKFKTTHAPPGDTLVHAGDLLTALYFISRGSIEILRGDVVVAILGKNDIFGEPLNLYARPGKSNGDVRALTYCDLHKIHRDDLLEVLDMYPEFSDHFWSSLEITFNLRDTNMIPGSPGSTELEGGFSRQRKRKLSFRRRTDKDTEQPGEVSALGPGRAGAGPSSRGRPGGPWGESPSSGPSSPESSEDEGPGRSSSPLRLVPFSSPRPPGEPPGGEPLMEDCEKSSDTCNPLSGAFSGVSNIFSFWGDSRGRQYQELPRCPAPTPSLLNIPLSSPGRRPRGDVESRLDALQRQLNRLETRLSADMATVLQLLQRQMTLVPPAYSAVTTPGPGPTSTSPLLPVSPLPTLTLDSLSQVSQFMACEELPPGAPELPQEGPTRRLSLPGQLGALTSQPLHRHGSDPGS
Chain of Histamine H2 receptor (P25021 whole entry): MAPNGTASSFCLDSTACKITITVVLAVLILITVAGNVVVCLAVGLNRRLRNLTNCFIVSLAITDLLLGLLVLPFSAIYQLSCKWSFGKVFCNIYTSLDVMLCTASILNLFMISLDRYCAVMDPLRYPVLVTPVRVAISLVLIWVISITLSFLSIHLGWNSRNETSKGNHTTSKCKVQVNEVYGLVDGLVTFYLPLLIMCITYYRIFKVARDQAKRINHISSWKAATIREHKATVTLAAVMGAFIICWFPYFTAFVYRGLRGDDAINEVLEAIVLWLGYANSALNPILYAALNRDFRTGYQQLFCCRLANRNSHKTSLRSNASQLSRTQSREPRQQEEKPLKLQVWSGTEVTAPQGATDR

| Structure (SMILES) | pIC50 [1] | solubility [2] [µg/mL] | Papp [3] [×10⁻⁶ cm/s] | pIC50 [4] | half-life [5] [min] | pIC50 [6] | pIC50 [7] | also measured |
| --- | --- | --- | --- | --- | --- | --- | --- | --- |
| CC(C)(C)c1ccc(-c2nc3c(N4CCN(Cc5ccc6[nH]c(=O)c(=O)n(Cc7cccnc7)c6c5)CC4)cccc3[nH]2)cc1 | 7.85 | < 1 | 0.05 | 8.25 | 10 | 7.33 | 7.16 | – |
| CC(C)(C)c1ccc(-c2nc3c(N4CCN(Cc5ccc6[nH]c(=O)c(=O)[nH]c6c5)CC4)cccc3[nH]2)cc1 | – | < 1 | < 0.1 | – | 14 | – | – | – |
| CC(C)(C)c1ccc(-c2nc3c(N4CCN(Cc5cnc6[nH]c(=O)c(=O)[nH]c6c5)CC4)cccc3[nH]2)cc1 | 8.01 | 4 (≈ 7.85 µM) | < 0.1 | 8.74 | 30 | 7.48 | 6.62 | – |
| CC(C)(C)c1ccc(-c2nc3c(N4CCN(Cc5cccc6nccnc56)CC4)cccc3[nH]2)cc1 | 6.40 | – | – | 7.59 | – | – | 5.23 | – |
| CC(C)(C)c1ccc(-c2nc3c(N4CCN(Cc5ccc6c(c5)NCC(=O)N6)CC4)cccc3[nH]2)cc1 | 7.80 | 1 (≈ 2.02 µM) | 0.05 | 7.80 | 3 | 7.06 | 6.92 | – |
| Cn1c(=O)c(=O)[nH]c2ccc(CN3CCN(c4cccc5[nH]c(-c6ccc(C(C)(C)C)cc6)nc45)CC3)cc21 | 8.13 | < 1 | – | 8.46 | – | 7.77 | 7.36 | – |

Continued, in another order:

| pIC50 [1] | solubility [2] [µg/mL] | Papp [3] [×10⁻⁶ cm/s] | pIC50 [4] | half-life [5] [min] | pIC50 [6] | pIC50 [7] | Structure (SMILES) | also measured |
| --- | --- | --- | --- | --- | --- | --- | --- | --- |
| 7.55 | – | 0.23 | 7.92 | 16 | 7.15 | 6.46 | CC(C)(C)c1ccc(-c2nc3c(N4CCN(Cc5ccc6nccnc6c5)CC4)cccc3[nH]2)cc1 | pKi [8]: 6.07; AUC(0-inf) [9]: 447 ng·h/mL; half-life [10]: 162 min; Activity [11]: Active; Activity [12]: Not Active; Tmax [13]: 2 h; bioavailability [14]: 74%; half-life [15]: 222 min; Activity [16]: Active; AUC(0-inf) [17]: 6640 ng·h/mL; Cmax [18]: 1330 ng/mL; pKi [19]: 6.48; Vd [20]: 6.1 L/kg; clearance [21]: 38 mL/min/kg; Ki [22]: 550 nM |
| 7.19 | 2 (≈ 4.2 µM) | 0.4 | 7.68 | – | – | 6.08 | CC(C)(C)c1ccc(-c2nc3c(N4CCN(Cc5ccc6ncccc6c5)CC4)cccc3[nH]2)cc1 | – |
| 6.85 | 4 (≈ 8.41 µM) | 1.5 | 7.62 | – | – | 6.27 | CC(C)(C)c1ccc(-c2nc3c(N4CCN(Cc5ccc6cccnc6c5)CC4)cccc3[nH]2)cc1 | – |
